Experimental data as given in patent US12371436B2, “Substituted benzodiazoliums as ENaC inhibitors” (ENTERPRISE THERAPEUTICS LIMITED, priority 2016, dated 2025).
Where a name gives a salt, the structure may show the parent alone.

What follows are compounds tested against T1, ENaC (Homo sapiens, UniProt P37088+P51168+P51170) (assay: Short circuit current assay to determine ENaC blocker potency in human bronchial epithelial cells). Conditions: 50% inhibition of total amiloride-sensitive ISC, apical addition, read-out: Averages.ENaC IC50 (nM) Avg.
T1 construct: host or cells: primary human bronchial epithelial cells (HBECs) differentiated at air-liquid interface
T1 sequence (P37088 1-669): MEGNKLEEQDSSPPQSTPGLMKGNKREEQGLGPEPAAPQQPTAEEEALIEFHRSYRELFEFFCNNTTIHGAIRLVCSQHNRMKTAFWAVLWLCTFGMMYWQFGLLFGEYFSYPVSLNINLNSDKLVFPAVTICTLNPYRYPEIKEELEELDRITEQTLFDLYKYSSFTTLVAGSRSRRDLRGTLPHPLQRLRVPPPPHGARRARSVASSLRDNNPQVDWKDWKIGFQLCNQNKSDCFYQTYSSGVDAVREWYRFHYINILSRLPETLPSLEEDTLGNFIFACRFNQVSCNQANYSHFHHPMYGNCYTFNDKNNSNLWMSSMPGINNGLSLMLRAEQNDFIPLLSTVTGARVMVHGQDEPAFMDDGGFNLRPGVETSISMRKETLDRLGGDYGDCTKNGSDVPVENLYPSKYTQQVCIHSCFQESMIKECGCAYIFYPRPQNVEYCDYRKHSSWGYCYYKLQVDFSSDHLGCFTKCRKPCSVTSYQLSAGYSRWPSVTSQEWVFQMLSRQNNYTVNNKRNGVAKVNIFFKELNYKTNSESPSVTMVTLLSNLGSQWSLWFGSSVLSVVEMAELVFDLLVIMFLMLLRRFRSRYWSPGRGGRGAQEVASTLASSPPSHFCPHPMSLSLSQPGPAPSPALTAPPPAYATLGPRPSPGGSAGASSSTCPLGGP
T1 sequence (P51168 1-640): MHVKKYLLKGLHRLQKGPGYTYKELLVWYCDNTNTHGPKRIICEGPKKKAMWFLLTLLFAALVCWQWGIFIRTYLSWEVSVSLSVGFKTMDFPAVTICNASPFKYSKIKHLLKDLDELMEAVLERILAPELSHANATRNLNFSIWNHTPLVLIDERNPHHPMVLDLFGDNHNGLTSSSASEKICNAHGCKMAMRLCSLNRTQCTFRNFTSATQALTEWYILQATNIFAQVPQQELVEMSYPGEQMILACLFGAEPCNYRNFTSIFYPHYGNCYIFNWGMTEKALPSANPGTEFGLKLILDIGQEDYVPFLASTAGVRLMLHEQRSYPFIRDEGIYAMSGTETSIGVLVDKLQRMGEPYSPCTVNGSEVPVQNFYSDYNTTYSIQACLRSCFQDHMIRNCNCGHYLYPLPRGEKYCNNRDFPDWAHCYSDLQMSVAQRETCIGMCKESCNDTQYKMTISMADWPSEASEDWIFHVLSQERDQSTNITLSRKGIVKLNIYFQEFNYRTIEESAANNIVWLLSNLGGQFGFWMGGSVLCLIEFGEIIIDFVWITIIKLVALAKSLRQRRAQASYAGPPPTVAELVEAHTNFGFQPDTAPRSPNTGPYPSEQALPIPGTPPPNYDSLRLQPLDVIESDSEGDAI
T1 sequence (P51170 1-649): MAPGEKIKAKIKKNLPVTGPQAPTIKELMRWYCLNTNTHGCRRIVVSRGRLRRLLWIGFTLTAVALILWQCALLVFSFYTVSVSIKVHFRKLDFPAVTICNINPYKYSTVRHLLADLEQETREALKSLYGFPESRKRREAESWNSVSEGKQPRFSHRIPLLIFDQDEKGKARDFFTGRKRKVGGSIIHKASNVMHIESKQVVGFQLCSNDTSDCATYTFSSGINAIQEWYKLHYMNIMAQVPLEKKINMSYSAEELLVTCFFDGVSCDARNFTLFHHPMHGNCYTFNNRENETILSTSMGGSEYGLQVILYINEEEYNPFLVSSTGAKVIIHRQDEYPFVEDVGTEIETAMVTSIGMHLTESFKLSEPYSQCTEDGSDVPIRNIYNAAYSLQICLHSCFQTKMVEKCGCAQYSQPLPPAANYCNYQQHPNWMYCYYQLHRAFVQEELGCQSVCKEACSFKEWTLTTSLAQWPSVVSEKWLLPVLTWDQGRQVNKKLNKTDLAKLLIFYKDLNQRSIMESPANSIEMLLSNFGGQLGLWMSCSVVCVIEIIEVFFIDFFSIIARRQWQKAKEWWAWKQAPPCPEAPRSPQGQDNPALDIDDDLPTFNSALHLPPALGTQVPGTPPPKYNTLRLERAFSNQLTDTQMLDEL
Assay type: cell-based
Summary of the method: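 Primary human bronchial epithelial cells at air-liquid interface (days 14–21) were voltage-clamped at 0 mV in Ussing chambers (Ringer, pH 7.4, 37° C.). Compounds were added apically as cumulative concentrations, then 10 μM amiloride. IC50 was taken as 50% inhibition of amiloride-sensitive ISC.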

| SMILES | IC50 |
| --- | --- |
| CCn1c(CNC(=O)c2nc3cc[nH]c3nc2N)[n+](CC)c2cc(CCCN(C[C@H](O)[C@@H](O)[C@H](O)[C@H](O)CO)C[C@H](O)[C@@H](O)[C@H](O)[C@H](O)CO)ccc21 [Example 45, 2-[({3-amino-5H-pyrrolo[2,3-b]pyrazin-2-yl}formamido)methyl]-5-(3-{bis[(2S,3R,4R,5R)-2,3,4,5,6-pentahydroxyhexyl]amino}propyl)-1,3-diethyl-1H-1,3-benzodiazol-3-ium] | 14 nM |
| CCn1c(CNC(=O)c2nc3cc[nH]c3nc2N)[n+](CC)c2ccc(-c3cnn(C4CCN(C(=O)OC(C)(C)C)CC4)c3)cc21 [Example 26, 2-[({3-amino-5H-pyrrolo[2,3-b]pyrazin-2-yl}formamido)methyl]-6-(1-{1-[(tert-butoxy)carbonyl]piperidin-4-yl}-1H-pyrazol-4-yl)-1,3-diethyl-1H-1,3-benzodiazol-3-ium] | 1 nM |
| CCn1c(CNC(=O)c2nc3cc[nH]c3nc2N)[n+](C)c2ccc(F)cc21 [Example 2, 2-[({3-amino-5H-pyrrolo[2,3-b]pyrazin-2-yl}formamido)methyl]-1-ethyl-6-fluoro-3-methyl-1H-1,3-benzodiazol-3-ium chloride] | 43 nM |
| CCn1c(CNC(=O)c2nc3c(Cl)c[nH]c3nc2N)[n+](CC)c2ccc(Cl)cc21 [Example 21, 2-[({3-amino-7-chloro-5H-pyrrolo[2,3-b]pyrazin-2-yl}formamido)methyl]-6-chloro-1,3-diethyl-1H-1,3-benzodiazol-3-ium] | 2 nM |
| CCn1c(CNC(=O)c2nc3cc[nH]c3nc2N)[n+](CC)c2ccc(OCCN)cc21 [Example 27, 2-[({3-amino-5H-pyrrolo[2,3-b]pyrazin-2-yl}formamido)methyl]-6-(2-aminoethoxy)-1,3-diethyl-1H-1,3-benzodiazol-3-ium] | 14 nM |
| Nc1nc2[nH]ccc2nc1C(=O)NCc1n(CC(=O)N2CCCCC2)c2ccccc2[n+]1Cc1ccccc1 [Example 18, 2-[({3-amino-5H-pyrrolo[2,3-b]pyrazin-2-yl}formamido)methyl]-3-benzyl-1-[2-oxo-2-(piperidin-1-yl)ethyl]-1H-1,3-benzodiazol-3-ium] | 5450 nM |
| CCn1c(CNC(=O)c2nc3cc[nH]c3nc2N)[n+](CC)c2ccc(C(=O)NC3CCN(C(=O)OC(C)(C)C)CC3)cc21 [Example 36, 2-[({3-amino-5H-pyrrolo[2,3-b]pyrazin-2-yl}formamido)methyl]-6-({1-[(tert-butoxy)carbonyl]piperidin-4-yl}carbamoyl)-1,3-diethyl-1H-1,3-benzodiazol-3-ium] | 3 nM |
| CCn1c(CNC(=O)c2nc3cc[nH]c3nc2N)[n+](CC)c2ccc(C(=O)NC3CCNCC3)cc21 [Example 40, 2-[({3-amino-5H-pyrrolo[2,3-b]pyrazin-2-yl}formamido)methyl]-1,3-diethyl-6-[(piperidin-4-yl)carbamoyl]-1H-1,3-benzodiazol-3-ium] | 7 nM |
| CCn1c(CNC(=O)c2nc3cc[nH]c3nc2N)[n+](C)c2ccccc21 [Example 1, 2-[({3-amino-5H-pyrrolo[2,3-b]pyrazin-2-yl}formamido)methyl]-1-ethyl-3-methyl-1H-1,3-benzodiazol-3-ium formate] | 33 nM |
| CCn1c(CNC(=O)c2nc3cc[nH]c3nc2N)[n+](CC)c2ccc(CCCNC(=N)N)cc21 [Example 33, 2-[({3-amino-5H-pyrrolo[2,3-b]pyrazin-2-yl}formamido)methyl]-6-(3-carbamimidamidopropyl)-1,3-diethyl-1H-1,3-benzodiazol-3-ium] | 3 nM |
| CCn1c(CNC(=O)c2nc3cc[nH]c3nc2N)[n+](CCO)c2ccc(OC)cc21 [Example 13, 2-[({3-amino-5H-pyrrolo[2,3-b]pyrazin-2-yl}formamido)methyl]-1-ethyl-3-(2-hydroxyethyl)-6-methoxy-1H-1,3-benzodiazol-3-ium] | 4 nM |
| CCn1c(CNC(=O)c2nc3cc[nH]c3nc2N)[n+](CCSC)c2ccc(OC)cc21 [Example 12, 2-[({3-amino-5H-pyrrolo[2,3-b]pyrazin-2-yl}formamido)methyl]-1-ethyl-6-methoxy-3-[2-(methylsulfanyl)ethyl]-1H-1,3-benzodiazol-3-ium iodide] | 5 nM |
